# Source: patent US7557123B2, “Heterocyclic compound and medicinal use thereof” (Kyoto Pharmaceutical Industries, Ltd., priority 2001, dated 2009)
# Legend:
# male KK-A^y mice = test: Hypoglycemic and hypolipidemic activity in spontaneously diabetic KK-Ay mice; type: in vivo; conditions: 10 mg/kg/day orally for 4 consecutive days, plasma 24 hours after final administration, non-fasting, vs control group
# Procedure: Blood was drawn under a non-fasting state from the tail vein of male KK-A^y mice, and the glucose and triglyceride levels of the plasma were measured using commercially available assay kits (glucose CII-test WAKO and triglyceride G-test WAKO, Wako Pure Chemical Industries, Ltd.). The mice were grouped (5 mice per group) into a control group and an administration group, such that the mean and standard deviation of the body weight and the plasma glucose and plasma triglyceride levels in each group were nearly the same. The test compounds (compounds of Examples 1, 2, 4, 8, 20, 22, 24, 27, 30, 33, 36, 37, 40, 45, 47, 52, 56, 58 and 64) were suspended in 5% gum arabic solution and administered (10 mg/kg/day) orally to the administration group for 4 consecutive days. The 5% gumarabic solution was orally administered to the control group. Blood was drawn under a non-fasting state from the tail vein 24 hours after the final administration and the glucose and triglyceride levels of the plasma were measured. The decrease in the plasma glucose and triglyceride levels was calculated from the following formula. Decrease (%)=[(mean of control group−mean of test compound administration group)/mean of control group]×100 Results
# [1] = Solubility of the compound in water (buffer pH 7.0); type: physicochemical
# Procedure: The pulverized test compound (compounds of Examples 2, 20, 22, 24, 27, 30, 40 or 65, 25 mg) was added to a buffer (1.0 ml, pH 7.0) and the mixture was shaken at 25° C. for 1 hr and passed through a membrane filter. The concentration of the test compound in the filtrate was measured by high performance liquid chromatography.
# male db/db mice = test: Hypoglycemic and hypolipidemic activity in db/db mice; type: in vivo; conditions: 3 mg/kg/day orally for 2 consecutive weeks, plasma 24 hours after final administration, non-fasting, vs control group
# Procedure: Using db/db mice genetically showing high plasma glucose, hypertriglyceridemia, insulin resistance and obesity, the pharmacological activity of the test compounds of Examples 1, 2 and 20 was examined.
# Blood was drawn under a non-fasting state from the tail vein of male db/db mice, the glucose level and triglyceride level of the plasma were measured using commercially available assay kits (glucose CII-test WAKO and triglyceride G-test WAKO, Wako Pure Chemical Industries, Ltd.). The mice were grouped (6 mice per group) into a control group and test compound (compounds of Examples 1, 2 and 20) administration group (3 mg/kg/day), such that the mean and standard deviation of the body weight and the plasma glucose and plasma triglyceride levels in each group were nearly the same. The test compound was suspended in 0.5% methylcellulose solution and administered orally for 2 consecutive weeks from the next day. The 0.5% methylcellulose solution was orally administered to the control group. Blood was drawn under a non-fasting state from the tail vein 24 hours after the final administration and the glucose and triglyceride levels of the plasma were measured. The decrease in the plasma glucose and triglyceride levels was calculated from the following formula. Decrease (%)=[(mean of control group−mean of test compound administration group)/mean of control group]×100 Results
# [2] = 25 mg in 1.0 ml buffer pH 7.0, shaken at 25° C. for 1 hr, filtrate by HPLC
SMILES,Decrease (%) in glucose level (male KK-A^y mice) [%],Decrease (%) in triglyceride level (male KK-A^y mice) [%],also measured
"CCCC#CC(=O)N1Cc2cc(OCCc3nc(/C=C/CCC)oc3C)ccc2C[C@H]1C(=O)O (stereo in doubt) [Example 4, 2-(2-hexynoyl)-7-[2-(5-methyl-2-(trans-1-penten-1-yl)oxazol-4-yl)ethoxy]-1,2,3,4-tetrahydroisoquinoline-(3S)-carboxylic acid]",40.3,40.5,
"CC(C)(C)N.CCC/C=C/c1nc(CCOc2ccc3c(c2)CN(C(=O)C=CCC(C)C)[C@H](C(=O)O)C3)c(C)o1 (stereo in doubt) [Example 47, tert-butylamine 2-(5-methyl-2-hexenoyl)-7-(2-[5-methyl-2-(trans-1-penten-1-yl)oxazol-4-yl]ethoxy}-1,2,3,4-tetrahydroisoquinoline-(3S)-carboxylate]",29.9,10.9,
"CC(C)(C)N.CCCCC=CC(=O)N1Cc2cc(OCCc3nc(/C=C/CC(C)C)oc3C)ccc2C[C@H]1C(=O)O (stereo in doubt) [Example 24, tert-butylamine-2-(2-heptenoyl)-7-{2-[5-methyl-2-(4-methyl-trans-1-penten-1-yl)oxazol-4-yl]ethoxy}-1,2,3,4-tetrahydroisoquinoline-(3S)-carboxylate]",52.8,50.7,Solubility ([1]; pH 7): 18.7 mg/mL
"CC(C)(C)N.CCC/C=C/c1nc(CCOc2ccc3c(c2)CN(C(=O)C(F)(F)CC)[C@H](C(=O)O)C3)c(C)o1 (stereo in doubt) [Example 52, tert-butylamine 2-(2,2-difluorobutyryl)-7-{2-[5-methyl-2-(trans-1-penten-1-yl)oxazol-4-yl]ethoxy}-1,2,3,4-tetrahydroisoquinoline-(3S)-carboxylate]",26.6,19.1,
"C=CCCCN1Cc2cc(OCCc3nc(/C=C/CC(C)C)oc3C)ccc2C[C@H]1C(=O)O (stereo in doubt) [Example 58, 7-{2-[5-methyl-2-(4-methyl-trans-1-penten-1-yl)oxazol-4-yl]ethoxy}-2-(4-pentenyl)-1,2,3,4-tetrahydroisoquinoline-(3S)-carboxylic acid]",25.1,23.2,
"CC(C)(C)N.CC=CC=CC(=O)N1Cc2cc(OCCc3nc(/C(C)=C/CC)oc3C)ccc2C[C@H]1C(=O)O (stereo in doubt) [Example 36, tert-butylamine 2-(2,4-hexadienoyl)-7-{2-[5-methyl-2-(1-methyl-trans-1-buten-1-yl)oxazol-4-yl]ethoxy}-1,2,3,4-tetrahydroisoquinoline-(3S)-carboxylate]",39.8,27.5,
CC(C)(C)N.CC=CC=CC(=O)N1Cc2cc(OCCc3nc(/C=C/COC)oc3C)ccc2C[C@H]1C(=O)O (stereo in doubt) [Example 65],,,"Solubility [1, 2]: 20.5 mg/mL"
"CC(C)(C)N.CC=CC=CC(=O)N1Cc2cc(OCCc3nc(/C=C/CCC(C)C)oc3C)ccc2C[C@H]1C(=O)O (stereo in doubt) [Example 30, tert-butylamine 2-(2,4-hexadienoyl)-7-{2-[5-methyl-2-(5-methyl-trans-1-hexen-1-yl)oxazol-4-yl]ethoxy}-1,2,3,4-tetrahydroisoquinoline-(3S)-carboxylate]",55.4,57.0,"Solubility [1, 2]: 17.3 mg/mL"
CCC/C=C/c1nc(CCOc2ccc3c(c2)CN(C(=O)C(F)(F)C(F)(F)F)[C@H](C(=O)O)C3)c(C)o1 (stereo in doubt) [Example 37],53.2,50.1,
"CC(C)(C)N.CC=CC=CC(=O)N1Cc2cc(OCCc3nc(/C(C)=C/CCC)oc3C)ccc2C[C@H]1C(=O)O (stereo in doubt) [Example 33, tert-butylamine 2-(2,4-hexadienoyl)-7-(2-[5-methyl-2-(1-methyl-trans-1-penten-1-yl)oxazol-4-yl]ethoxy}-1,2,3,4-tetrahydroisoquinoline-(3S)-carboxylate]",58.2,68.3,
"CC(C)(C)N.CC=CC=CC(=O)N1Cc2cc(OCCc3nc(/C=C/CC(C)(C)C)oc3C)ccc2C[C@H]1C(=O)O (stereo in doubt) [Example 45, tert-butylamine 7-{2-[2-(4,4-dimethyl-trans-1-penten-1-yl)-5-methyloxazol-4-yl]ethoxy)-2-(2,4-hexadienoyl)-1,2,3,4-tetrahydroisoquinoline-(3S)-carboxylate]",38.7,32.6,
"CCC/C=C/c1nc(CCOc2ccc3c(c2)CN(C(=O)C=CCCCC)[C@H](C(=O)[O-])C3)c(C)o1.[Na+] (stereo in doubt) [Example 1, sodium 2-(2-heptenoyl)-7-[2-(5-methyl-2-(trans-1-penten-1-yl)oxazol-4-yl)ethoxy]-1,2,3,4-tetrahydroisoquinoline-(3S)-carboxylate]",46.1,45.3,Decrease (%) in glucose level (male db/db mice): 21.3%; Decrease (%) in triglyceride level (male db/db mice): 62.7%
"Cc1oc(C=Cc2ccccc2)nc1CCOc1ccc2c(c1)CN(C(=O)C(F)(F)C(F)(F)F)[C@H](C(=O)O)C2 [Example 8, 7-[2-(5-methyl-2-styryloxazol-4-yl)ethoxy]-2-pentafluoropropionyl-1,2,3,4-tetrahydroisoquinoline-(3S)-carboxylic acid]",57.2,71.1,
"CC(C)(C)N.CC=CC=CC(=O)N1Cc2cc(OCCc3nc(/C=C/C4CCCC4)oc3C)ccc2C[C@H]1C(=O)O (stereo in doubt) [Example 22, tert-butylamine 7-{2-[2-(trans-2-cyclopentylvinyl)-5-methyloxazol-4-yl]ethoxy}-2-(2,4-hexadienoyl)-1,2,3,4-tetrahydroisoquinoline-(3S)-carboxylate]",45.3,51.4,"Solubility (mg/ml) [1, 2]: 25 or above mg/ml"
"C=CCCN1Cc2cc(OCCc3nc(/C=C/CC(C)C)oc3C)ccc2C[C@H]1C(=O)O (stereo in doubt) [Example 64, 2-(3-butenyl)-7-{2-[5-methyl-2-(4-methyl-trans-1-penten-1-yl)oxazol-4-yl]ethoxy}-1,2,3,4-tetrahydroisoquinoline-(3S)-carboxylic acid]",29.4,25.1,
CC(C)(C)N.CC=CC=CC(=O)N1Cc2cc(OCCc3nc(/C=C/C4CCCCC4)oc3C)ccc2C[C@H]1C(=O)O (stereo in doubt) [Example 40],54.3,37.0,"Solubility [1, 2]: 18.7 mg/mL"
CC(C)(C)N.CC=CC=CC(=O)N1Cc2cc(OCCc3nc(/C=C/C4(C)CCCCC4)oc3C)ccc2C[C@H]1C(=O)O (stereo in doubt) [Example 56],21.0,11.9,
"CC(C)(C)N.CC=CC=CC(=O)N1Cc2cc(OCCc3nc(/C=C/CCCC)oc3C)ccc2C[C@H]1C(=O)O (stereo in doubt) [Example 27, tert-butylamine 2-(2,4-hexadienoyl)-7-{2-[2-(trans-1-hexen-1-yl)-5-methyloxazol-4-yl]ethoxy}-1,2,3,4-tetrahydroisoquinoline-(3S)-carboxylate]",53.4,36.5,"Solubility (mg/ml) [1, 2]: 25 or above mg/ml"
